This is an account of results in paper PMC11212260, “Next-generation neuropeptide Y receptor small-molecule agonists inhibit mosquito-biting behavior” (Parasites & Vectors, 2024).

The test system of test [1] is Aedes aegypti (Orlando strain) females. Put plainly: Host-seeking screening assay (miniport olfactometer). As to conditions: for Attraction (relative to saline): per-compound value of Fig. 3C; for effect on host-seeking (in words): fed at a dose of 1 μM. Format: in vivo. Summed up: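 Fasted Orlando-strain females fed saline meals (400 mM NaHCO3) with 1 mM ATP and test compound at 1 μM final via warmed membrane feeders; lethality counted 24 h post-meal. At 48 h, attraction to human-scented stocking plus 5% CO2 scored over 5 min, normalized to matched saline-fed controls.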

Test [2] has as its target Ae. aegypti NPYLR7 (Aedes aegypti, UniProt U5N1H5). Put plainly: In vitro calcium (GCaMP6s) FLIPR assay in HEK293T cells transfected with NPYLR7. Format: cell-based. As to conditions: for in vitro potency (in words): relative to reference compound TDI-012631; for RFU: assay date 1/11/20 plate 1, duplicate wells, listed as TDI-012631-CL-1. Summed up: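 HEK293T cells transiently co-transfected with GCaMP6s, mouse Gqα15 and NPYLR7; FLIPR imaging every second for 5 min, compound (0–100 μM) added after 30 s baseline in HBSS + 20 mM HEPES. Response normalized to buffer (0%) and 10 μM FMRFa3 (100%); relative EC50 by four-parameter fit, replicates averaged.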

[3] abbreviates: fed 1 μM in saline, tested 48 h post-meal.
The mark [4] stands for this setting: EC50 of the individual assay date/plate (assay date), read-out: EC50.
[5] abbreviates: Figure 1E Summary, third list (n = 39), read-out: Reported Metric (Summary list).
The mark [6] stands for this setting: relative EC50, percent effect relative to 10 μM FMRFa3, read-out: EC50.
Setting [7] is: summary EC50 per compound (mean over assay dates), the unit is taken from the neighbouring EC50 (uM) column, read-out: Reported Metric.

The structures appear in SMILES notation. Several values for one entry are separate records, joined by “and”; a condition that tells them apart may be missing. Identical values can stand only once. Like-named read-outs stand apart in the source and are kept apart here.

Ae. aegypti NPYLR7, sequence (U5N1H5 entry or part of it): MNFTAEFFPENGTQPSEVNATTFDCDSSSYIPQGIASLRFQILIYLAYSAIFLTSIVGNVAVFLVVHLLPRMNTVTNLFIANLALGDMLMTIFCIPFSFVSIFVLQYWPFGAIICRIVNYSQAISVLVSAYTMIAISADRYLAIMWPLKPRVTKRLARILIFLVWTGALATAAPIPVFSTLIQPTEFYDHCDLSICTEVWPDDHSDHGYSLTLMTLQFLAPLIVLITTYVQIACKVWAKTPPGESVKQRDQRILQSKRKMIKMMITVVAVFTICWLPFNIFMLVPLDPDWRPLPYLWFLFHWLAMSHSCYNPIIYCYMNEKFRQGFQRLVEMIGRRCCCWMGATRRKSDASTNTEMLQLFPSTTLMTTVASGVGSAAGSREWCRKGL

Consider `CNc1nc(NC(=N)N)nc2cc(OCc3ccccc3)c(OC)cc12` [TDI-014184], for which the “Attraction (relative to saline)” value in test [1] (setting [3]) came out at 0.6. Besides, the EC50 in test [2] (setting [4]), in test [2] (setting [5]), in test [2] (setting [6]) and in test [2] (setting [7]) was 0.49 µM throughout. The activation at 0.0457 µM in test [2] (HEK-293T, 0.0457 uM, single replicate, normalised response) is 8.6%. Also, the activation at 11.1111 µM in test [2] (HEK-293T, 11.1111 uM, single replicate, normalised response) was determined as 91.4%. Besides, the “in vitro potency (in words)” value in test [2] was “significantly improved in vitro potency”.
In the case of `COc1ccc2c(C)nc(NC(=N)N)nc2c1` [TDI-012631, reference compound], the “Host-seeking relative to saline (test compound % host-seeking/average matched saline % host-seeking)” value in test [1] (fed 1 μM in saline, tested 48 h post-meal, individual replicates, listed as TDI-02631) is 1.06 and 1. Besides, the “Attraction (relative to saline)” value in test [1] (setting [3]) came out at 0.99. Also, the “effect on host-seeking (in words)” value in test [1] was “not active”. In addition, the RFU in test [2] (0.00169350878084303uM) is 71 RFU and 55 RFU; in test [2] (0.00508052634252909uM) it was 71 RFU and 78 RFU; in test [2] (0.0152415790275873uM) it was 77 RFU and 71 RFU; in test [2] (0.0457247370827618uM), 80 RFU and 73 RFU; in test [2] (0.137174211248285uM), 64 RFU and 79 RFU; in test [2] (0.411522633744856uM), 90 RFU and 78 RFU. Moreover, the RFU was 273 RFU and 186 RFU in test [2] (3.7037037037037uM); 265 RFU and 324 RFU in test [2] (11.1111111111111 uM); 286 RFU and 301 RFU in test [2] (33.333333 uM); 368 RFU and 331 RFU in test [2] (100 uM). The EC50 in test [2] (setting [5]) was 4.11 µM; in test [2] (Figure 1E, EC50 of the single assay date/plate, read-out: EC50) it was 2.75 µM and 1.61 µM and 2.58 µM and 3.45 µM and 2.36 µM and 11.5 µM and 2.22 µM and 6.4 µM; in test [2] (Figure 1E, metric reported per compound, repeated on every replicate line, read-out: Reported Metric (EC50)), 4.11 µM; in test [2] (setting [6]) it was 4.11 µM; in test [2] (sheet Figure 3C, unit inferred, read-out: EC50), 4.11 µM. Further, the “response at 0.0051(uM)” value in test [2] (compound 0.0051 uM, single replicate well) is reported as -0.02145. The “response at 0.0152(uM)” value in test [2] (compound 0.0152 uM, single replicate well) stood at 3.235. In addition, the “response at 0.4115(uM)” value in test [2] (compound 0.4115 uM, single replicate well) is -1.786.
Turning to `Cc1nc(NC(=N)N)nc2cc(N3CCc4ccccc4C3)ccc12` [TDI-014186], in test [1] (setting [3]), the “Attraction (relative to saline)” value is reported as 0.685. The “effect on host-seeking (in words)” value in test [1] is “reduced host-seeking behavior”. The EC50 came out at 35.5 µM in test [2] (setting [4]); 35.5 µM in test [2] (Figure 1E Summary, second list (n = 48), read-out: Reported Metric (Summary list)); 35.5 µM in test [2] (setting [6]); 35.5 µM in test [2] (setting [7]). Besides, in test [2], the “in vitro potency (in words)” value is recorded as “lower in vitro potency”.
